Source: patent US9388123B2, “LSD1-selective inhibitor having lysine structure” (KYOTO UNIVERSITY, priority 2012, dated 2016)
Counter-ions that a name gives are not always drawn.

Tests used:
[1] = system: HeLa cells; experiment: Cancer cell growth inhibition evaluation (MTT assay); assay type: cell-based; details: Homo sapiens; 48 hours with compound, MTT; read-out: GI50 (μM) HeLa
Procedure: (§1) Evaluation was performed by measuring the inhibitory activities of a compound against the growth of a human cervical cancer-derived cell line, HeLa cells, and a human neuroblastoma cell line, SH-SY5Y cells. Details thereof are shown below. […] This assay involves, as a principle thereof, measuring an absorbance at the time of color development through a reaction of NADH, which is contained in the mitochondria of viable cells, and MTT to measure the amount of NADH. The assay was performed by the following procedure. […] After the culture, a compound was added. Then, the cells were cultured for an additional 48 hours, and then 5 mg/ml MTT liquid was added at 10 μl per well. The cells were cultured for an additional 3 hours in a CO2 incubator. A solubilization solution (0.04 mol/l hydrochloric acid-isopropanol) was added at 100 μl per well and the mixture was vigorously vortexed. After that, an absorbance at 560 nm was measured with Fusion-aFP (manufactured by PerkinElmer) and the amount of viable cells was determined.

[2] = system: SH-SY5Y cells; experiment: as above; assay type: cell-based; details: Homo sapiens, MTT, read-out: GI50 (μM) SH-SY5Y
Procedure: as §1

[3] = molecular target: T1, LSD1 (Homo sapiens, UniProt O60341); experiment: LSD1 inhibition test (peroxidase-coupled absorbance assay); assay type: biochemical; details: 25° C., 30 minutes, histone H3-lysine 4 dimethyl peptide
T1 construct: five histidine residues added to the N-terminus of full-length LSD1 (1-851aa); 5xHis (five histidine residues) (N); made in house; host or cells: Escherichia coli

Row | melting point | GI50 [1] | GI50 [2] | IC50 [3] | Structure (SMILES)
1 | 101 to 103 °C |  |  |  | Cc1cccc(CNC(=O)[C@H](CCCCNC2CC2c2ccccc2)NC(=O)c2ccc(-c3ccccc3)cc2)c1 (stereo partly drawn) (as salt: hydrochloride) [Example 16, 2-[N-(4-Phenylbenzenecarbonyl)]amino-6-(trans-2-phenylcyclopropan-1-amino)-N-(3-methylbenzyl)hexanamide Hydrochloride]
2 |  | 4.2 µM | 2.3 µM | 0.68 µM | Cc1cccc(CNC(=O)[C@H](CCCCNC2CC2c2ccccc2)NC(=O)c2ccc(-c3ccccc3)cc2)c1 (stereo partly drawn) [Example 16, 2-[N-(4-Phenylbenzenecarbonyl)]amino-6-(trans-2-phenylcyclopropan-1-amino)-N-(3-methylbenzyl)hexanamide Hydrochloride]
3 |  | 4 µM | 2.7 µM | 1.2 µM | CC(C)(C)c1ccc(CNC(=O)[C@H](CCCCNC2CC2c2ccccc2)NC(=O)c2ccc(-c3ccccc3)cc2)cc1 (stereo partly drawn) [Example 15, 2-[N-(4-Phenylbenzenecarbonyl)]amino-6-(trans-2-phenylcyclopropan-1-amino)-N-(4-tert-butylbenzyl)hexanamide Trifluoroacetate]
4 |  | 5.2 µM | 6.4 µM | 2.7 µM | O=C(N[C@@H](CCCCNC1CC1c1ccccc1)C(=O)NCc1ccc(-c2ccccc2)cc1)c1ccc(-c2ccccc2)cc1 (stereo partly drawn) [Example 14, 2-[N-(4-Phenylbenzenecarbonyl)]amino-6-(trans-2-phenylcyclopropan-1-amino)-N-(4-phenylbenzyl)hexanamide Hydrochloride]
5 |  | 4.4 µM | 3.9 µM | 0.75 µM | O=C(N[C@@H](CCCCNC1CC1c1ccccc1)C(=O)NCc1ccc(F)cc1)c1ccc(-c2ccccc2)cc1 (stereo partly drawn) [Example 13, 2-[N-(4-Phenylbenzenecarbonyl)]amino-6-(trans-2-phenylcyclopropan-1-amino)-N-(4-fluorobenzyl)hexanamide Hydrochloride]
6 | 139 to 140 °C |  |  |  | O=C(N[C@@H](CCCCNC1CC1c1ccccc1)C(=O)NCc1ccc(-c2ccccc2)cc1)c1ccc(-c2ccccc2)cc1 (stereo partly drawn) (as salt: hydrochloride) [Example 14, 2-[N-(4-Phenylbenzenecarbonyl)]amino-6-(trans-2-phenylcyclopropan-1-amino)-N-(4-phenylbenzyl)hexanamide Hydrochloride]
7 |  | 9.7 µM | 3.8 µM | 0.98 µM | O=C(N[C@@H](CCCCNC1CC1c1ccccc1)C(=O)NCc1cccc(-c2ccccc2)c1)c1ccc(-c2ccccc2)cc1 (stereo partly drawn) [Example 18, 2-[N-(4-Phenylbenzenecarbonyl)]amino-6-(trans-2-phenylcyclopropan-1-amino)-N-(3-phenylbenzyl)hexanamide Hydrochloride]
8 |  | 10.9 µM | 4.1 µM | 0.67 µM | O=C(N[C@@H](CCCCNC1CC1c1ccccc1)C(=O)NCc1cccc(F)c1)c1ccc(-c2ccccc2)cc1 (stereo partly drawn) [Example 17, 2-[N-(4-Phenylbenzenecarbonyl)]amino-6-(trans-2-phenylcyclopropan-1-amino)-N-(3-fluorobenzyl)hexanamide Hydrochloride]

Further lines, the molecule ahead of its results:

Row | Structure (SMILES) | melting point | GI50 [1] | GI50 [2] | IC50 [3]
9 | O=C(N[C@@H](CCCCNC1CC1c1ccccc1)C(=O)NCc1ccccc1)c1ccc(Cl)cc1 (stereo partly drawn) (as salt: hydrochloride) [Example 6, 2-[N-(4-Chlorobenzenecarbonyl)]amino-6-(trans-2-phenylcyclopropan-1-amino)-N-benzylhexanamide Hydrochloride] | 107 to 109 °C |  |  | 
10 | O=C(N[C@@H](CCCCNC1CC1c1ccccc1)C(=O)NCc1ccccc1)c1ccc(-c2ccccc2)cc1 (stereo partly drawn) (as salt: hydrochloride) [Example 8, 2-[N-(4-Phenylbenzenecarbonyl)]amino-6-(trans-2-phenylcyclopropan-1-amino)-N-benzylhexanamide Hydrochloride] | 143 to 146 °C |  |  | 
11 | O=C(N[C@@H](CCCCNC1CC1c1ccccc1)C(=O)NCc1ccc(F)cc1)c1ccc(-c2ccccc2)cc1 (stereo partly drawn) (as salt: hydrochloride) [Example 13, 2-[N-(4-Phenylbenzenecarbonyl)]amino-6-(trans-2-phenylcyclopropan-1-amino)-N-(4-fluorobenzyl)hexanamide Hydrochloride] | 95 to 96 °C |  |  | 
12 | Cc1ccc(C(=O)N[C@@H](CCCCNC2CC2c2ccccc2)C(=O)NCc2ccccc2)cc1 (stereo partly drawn) [Example 4, 2-[N-(4-Methylbenzenecarbonyl)]amino-6-(trans-2-phenylcyclopropan-1-amino)-N-benzylhexanamide Trifluoroacetate] |  |  |  | 0.44 µM
13 | N[C@@H](CCCCNC1CC1c1ccccc1)C(=O)NCc1ccccc1 (stereo partly drawn) [Example 3, 2-Amino-6-(trans-2-phenylcyclopropan-1-amino)-N-benzylhexanamide Dihydrochloride] |  |  |  | 0.06 µM
14 | O=C(N[C@@H](CCCCNC1CC1c1ccccc1)C(=O)NCc1ccccc1)c1ccc(F)cc1 (stereo partly drawn) (as salt: hydrochloride) [Example 7, 2-[N-(4-Fluorobenzenecarbonyl)]amino-6-(trans-2-phenylcyclopropan-1-amino)-N-benzylhexanamide Hydrochloride] | 90 to 91 °C |  |  | 
15 | O=C(N[C@@H](CCCCNC1CC1c1ccccc1)C(=O)NCc1ccccc1)c1ccc(C(F)(F)F)cc1 (stereo partly drawn) (as salt: hydrochloride) [Example 9, 2-[N-(4-Trifluoromethylbenzenecarbonyl)]amino-6-(trans-2-phenylcyclopropan-1-amino)-N-benzylhexanamide Hydrochloride] | 98 to 101 °C |  |  | 
16 | Cc1ccc(CNC(=O)[C@H](CCCCNC2CC2c2ccccc2)NC(=O)c2ccc(-c3ccccc3)cc2)cc1 (stereo partly drawn) (as salt: hydrochloride) [Example 12, 2-[N-(4-Phenylbenzenecarbonyl)]amino-6-(trans-2-phenylcyclopropan-1-amino)-N-(4-methylbenzyl)hexanamide Hydrochloride] | 117 to 118 °C |  |  | 
17 | O=C(N[C@@H](CCCCNC1CC1c1ccccc1)C(=O)NCc1ccccc1)c1ccc(Cl)cc1 (stereo partly drawn) [Example 6, 2-[N-(4-Chlorobenzenecarbonyl)]amino-6-(trans-2-phenylcyclopropan-1-amino)-N-benzylhexanamide Hydrochloride] |  | 13 µM | 11 µM | 0.2 µM
18 | CC(C)(C)c1ccc(C(=O)N[C@@H](CCCCNC2CC2c2ccccc2)C(=O)NCc2ccccc2)cc1 (stereo partly drawn) [Example 5, 2-[N-(4-tert-Butylbenzenecarbonyl)]amino-6-(trans-2-phenylcyclopropan-1-amino)-N-benzylhexanamide Hydrochloride] |  | 12 µM | 4.8 µM | 0.79 µM
19 | CC(C)(C)OC(=O)N[C@@H](CCCCNC1CC1c1ccccc1)C(=O)NCc1ccccc1 (stereo partly drawn) [Example 2, 2-(N-tert-Butoxycarbonyl)amino-6-(trans-2-phenylcyclopropan-1-amino)-N-benzylhexanamide] |  |  |  | 1.2 µM
20 | O=C(N[C@@H](CCCCNC1CC1c1ccccc1)C(=O)NCc1cccc(C(F)(F)F)c1)c1ccc(-c2ccccc2)cc1 (stereo partly drawn) (as salt: hydrochloride) [Example 19, 2-[N-(4-Phenylbenzenecarbonyl)]amino-6-(trans-2-phenylcyclopropan-1-amino)-N-(3-trifluoromethylbenzyl)hexanamide Hydrochloride] | 129 to 130 °C |  |  | 
21 | O=C(N[C@@H](CCCCNC1CC1c1ccccc1)C(=O)NCc1ccccc1)c1cccc(C(=O)N2CCNCC2)c1 (stereo partly drawn) [Example 11, 2-[3-(Piperazine-1-carbonyl)benzenecarbonylamino}-6-(trans-2-phenylcyclopropan-1-amino)-N-benzylhexanamide Ditrifluoroacetate] |  |  |  | 0.25 µM
22 | NC1CC1c1ccccc1 (stereo not drawn) [Comp. Ex. 1, trans-2-Phenylcyclopropylamine, reference compound] |  | > 500 µM | 503 µM | 
23 | NCCNC(=O)c1cccc(C(=O)N[C@@H](CCCCNC2CC2c2ccccc2)C(=O)NCc2ccccc2)c1 (stereo partly drawn) [Example 10, 2-{3-[(2-Amino)ethylcarbamoyl]benzenecarbonylamino)-6-(trans-2-phenylcyclopropan-1-amino)-N-benzylhexanamide Ditrifluoroacetate] |  |  |  | 0.1 µM
24 | O=C(N[C@@H](CCCCNC1CC1c1ccccc1)C(=O)NCc1ccccc1)c1ccc(F)cc1 (stereo partly drawn) [Example 7, 2-[N-(4-Fluorobenzenecarbonyl)]amino-6-(trans-2-phenylcyclopropan-1-amino)-N-benzylhexanamide Hydrochloride] |  |  |  | 0.25 µM
25 | Cc1ccc(CNC(=O)[C@H](CCCCNC2CC2c2ccccc2)NC(=O)c2ccc(-c3ccccc3)cc2)cc1 (stereo partly drawn) [Example 12, 2-[N-(4-Phenylbenzenecarbonyl)]amino-6-(trans-2-phenylcyclopropan-1-amino)-N-(4-methylbenzyl)hexanamide Hydrochloride] |  | 4.4 µM | 3.5 µM | 0.6 µM
26 | O=C(N[C@@H](CCCCNC1CC1c1ccccc1)C(=O)NCc1ccccc1)c1ccc(C(F)(F)F)cc1 (stereo partly drawn) [Example 9, 2-[N-(4-Trifluoromethylbenzenecarbonyl)]amino-6-(trans-2-phenylcyclopropan-1-amino)-N-benzylhexanamide Hydrochloride] |  | 13 µM | 5.4 µM | 0.38 µM
